*1 amine or outer side, *2 acyl side, *3 side chain or, on linkers, in order; H or OH if unused. Where a SMILES comes first, the peptide text is derived from it. [ ]: non-standard residue; d: D form. X2 = C[C@@H]1C([C@@H](N[*:1])C(=O)[*:2])[C@H]1C; X1 = C[C@@H]1C([C@H](N[*:1])C(=O)[*:2])[C@H]1C; NMeL = CN[C@@H](CC(C)C)C(=O)O; NMeA = CN[C@@H](C)C(=O)O; dNMeA = CN[C@H](C)C(=O)O
Key:
[1] = tested on: oral epidermoid (KB) carcinoma cell line; test: Cytotoxicity assay (sulforhodamine B), KB; format: cell-based, human; conditions: KB cells
Experimental: (§4) Pure compounds are evaluated against the human cancer cell lines comprising our cytotoxicity screening panel. Cytotoxicity assays involving oral epidermoid (KB), colon (HCT116), prostate (LNCaP), breast (MCF7), Hela (cervical), leukemia (HL-60) melanoma (A375) and lung (A549) carcinoma cell lines, are performed using sulforhodamine B according to established protocols (Zhang et al., Journal of Medicinal Chemistry 2006; 49: 693-708; and Jutiviboonsuk A et al., Phytochemistry 2005; 66: 2745-2751.). KB and A375 cells are maintained in DMEM (Dulbecco's modified Eagle medium) medium. LNCaP and HL60 cells are maintained in RPMI1640 medium with hormone-free 10% heat-activated FBS (fetal bovine serum) supplemented with 0.1 nM testosterone. MCF7 and Hela cells are maintained and assayed in MEME (Minimum Essential Medium Eagle) medium containing 10 mg/L of insulin. HCT116 cells are maintained in McCoy's 5A medium supplemented with 10% fetal bovine serum. A549 cells are maintained in RPMI-1640 medium supplemented with 10% FCS. Serial dilutions of the compounds are prepared using 10% aqueous DMSO as solvent. The 190 μL cell suspension (3×10^4 cells in 1 ml media) is incubated with 10 μL sample solutions, in triplicate, in 96-well tissue culture plate at 37° C. in a humidified atmosphere of 5% CO2 in air for 72 hours. 10 μL 10% aqueous DMSO is used as control group. Then the cells are fixed to plastic substratum by the addition of 100 μL cold 20% aqueous trichloroacetic acid and washing with water after incubation at 4° C. for 30 min. After staining cells with 100 μL of 0.4% sulforhodamine B in 1% aqueous AcOH for 30 min, unbound dye is removed by rinsing with 1% aqueous AcOH. The bound dye is solubilized with 200 μL 10 mM unbuffered Tris base, pH 10, and the optical density is measured at 515 nm using an ELISA plate reader. The average data are expressed as a percentage, relative to the control. The IC50 values, the dose that inhibit cell growth by 50%, are calculated using nonlinear regression analysis (percent survival versus concentration).

[2] = tested on: prostate (LNCaP) carcinoma cell line; test: cells; format: cell-based, human; conditions: Homo sapiens, 72 hours, read-out: Cytotoxic activity IC50, LNCaP
Experimental: as §4

[3] = tested on: lung (A549) carcinoma cell line; test: cells; format: cell-based, human; conditions: Homo sapiens
Experimental: as §4

[4] = tested on: breast (MCF7) carcinoma cell line; test: cells; format: cell-based, human; conditions: Homo sapiens
Experimental: as §4

[5] = tested on: HCT116-tumor xenograft; test: HCT116 xenograft mouse model; format: in vivo; conditions: for Inhibition of HCT116 tumor growth (excised tumor weights): every other day for 21 days
Experimental: The treatment started on the 6th day when the HCT116-tumor reached approximately 100 mm^3 (L×W×W). […] All mice died for the maytansine group after the initial two treatments at the dose of 0.1 mg/kg, indicating the highly toxicity of maytansine.

[6] = tested on: lung cancer cell line (A549); test: Hollow fiber in vivo test, A549; parameters: species or system mouse
Experimental: (§1) Hollow fiber tests are well known in the art for providing preliminary indications of therapeutic efficacy (Mi et al. J. Nat. Prod. 2002, 65: 842-850). In hollow fiber tests, human tumor cell lines currently employed in cell cultures are grown inside semipermeable hollow fibers to form heterogeneous solid tumor models. […] By evaluating the test compound's inhibition of tumor cell growth versus the toxic response in the host, a preliminary estimate of therapeutic efficacy is provided in a cost- and time effective manner.

[7] = tested on: colon cancer cell line (HCT116); test: Hollow fiber in vivo test, HCT116; parameters: species or system mouse
Experimental: as §1

[8] = tested on: breast cancer cell line (MCF7); test: Hollow fiber in vivo test, MCF7; parameters: species or system mouse
Experimental: as §1

[9] = tested on: melanoma cancer cell line (A375); test: Hollow fiber in vivo test, A375; parameters: species or system mouse
Experimental: as §1

[10] = tested on: cervical cancer cell line (Hela); test: Hollow fiber in vivo test, Hela; parameters: species or system mouse
Experimental: as §1

[11] = tested on: MCF7-tumor xenograft; test: MCF7 xenograft mouse model; conditions: for Inhibition of MCF7 tumor growth (excised tumor weights): twice a week for 3 weeks
Experimental: The treatment started on the 12th day when the MCF7-tumor size reached approximately 100 mm^3 (L×W×H). Two doses of MV-A (1.0 and 2.0 mg/kg), paclitaxel (5 mg/kg), and vehicle were administered via i.p. (intraperitoneal), i.v. (intravenous), or oral respectively, to the tumor-bearing mice twice a week for 3 weeks ([…]).
Antitumor animal study. All animal studies were approved and performed according to Animal Care and Use Guidelines of the Animal Ethics Committee at Hong Kong Baptist University and performed following Animal Care and Use guidelines set by NIH (National Institute of Health, USA). BALB/c nude mice, SPF class, male or female, 5-6 weeks old, were purchased from Charles River Laboratories. Before the experiment, it is one week of acclimatization to SPF class laboratory conditions. MV-A is tested for its anticancer activity against HCT116 and MCF7 cancer cells using a number of nude mice (Balc/nu/nu, female) in comparison of paclitaxel and maytansine. HCT116 or MCF7 cancer cells are subcutaneously implanted with 5×10^6 cells in the rear flank of each mouse. Female mice receiving MCF-7 cells are implanted with an s.c. pellet of 17β-estradiol (0.72 mg/pellet) a few days prior to injection to induce tumors. […] The mice are divided into 5 groups for HCT116 cancer cells: one high dose (1.0 mg/kg: 10 mice) group of MV-A, one low dose (0.5 mg/kg: 10 mice) group of MV-A, one dose (5.0 mg/kg: 10 mice) of paclitaxel, one dose of maytansine (0.1 mg/kg) and one dose of vehicle (negative control: 10 mice). The mice are then divided into 4 groups for MCF7 cancer cells: one high dose (2.0 mg/kg: 10 mice) group of MV-A, one low dose (1.0 mg/kg: 10 mice) group of MV-A, one dose (5.0 mg/kg: 10 mice) of paclitaxel, and one dose of vehicle (negative control: 10 mice). Every other day administration via i.p. (intraperitoneal), i.v. (intravenous), or oral, respectively are scheduled for 21 days for the HCT116 groups. Twice a week injections administered via i.p. (intraperitoneal), i.v. (intravenous), or oral, respectively are scheduled for […] for the MCF7 groups. Weights of mice and tumor diameters are measured twice a week until the end of the experiment. The tumor size in mm^3 was calculated by the formula: tumor size=length×width×height (L×W×H).

[12] = tested on: 3T3-L1 murine adipocytes; test: 3T3-L1 fat accumulation (triglyceride) assay; format: cell-based; conditions: differentiated 3T3-L1 adipocytes, 7 days, read-out: Anti-obesity activity (fat accumulation) EC50
Experimental: (§2) MV-A, MV-B, MV-C and MV-D are evaluated for their anti-obesity effects in 3T3-L1 murine adipocytes. 3T3-L1 cells are cultured in the presence of insulin to induce adipocyte differentiation.
(§3) Pure compounds are evaluated against 3T3-L1 cell line for their potential anti-obesity activity. […] After the cells reach 100% confluence, the culture medium is changed to a differentiation DMEM medium containing 10% FCS, […], 0.5 mM 3-isobutyl-1-methylxanthine (IBMX), 90 U/mL penicillin, […] and 10 μg/mL insulin for induction of the adipocyte form of the 3T3-L1 cells. After 2 days, the differentiation medium is changed back to the normal DMEM medium and refreshed with the normal medium every 2 days. After incubation of additional 7 days, the cells are seeded in two sets of 96-well plates (about 10,000 cells per well). The test compounds in different concentrations are then added to the wells with 0.5% aqueous DMSO as control group. After incubation of 7 days, the differentiated 3T3-L1 adipocytes are treated with 2% Triton-X 100 ([…]) for 30 min at room temperature followed by sonication for 1 min. Fat accumulation is determined by measuring the liberated triglyceride using a Wato Triglyceride E-test Kit with the absorbance at 630/690 nm. The fat-accumulation rate is calculated as a percentage of the DMSO control. […] The cell viability of the differentiated 3T3-L1 adipocytes in another 96-well plate is treated with a Wako Cell Counting Kit-8 Test and measured with the absorbance at 450 nm. The cell viability is calculated as a percentage of the control.

[13] = tested on: 3T3-L1 murine adipocytes; test: 3T3-L1 adipocyte cell viability; format: cell-based; conditions: differentiated 3T3-L1 adipocytes
Experimental: as §2, §3

[14] = tested on: panel of cancer cell lines comprising KB, HCT116, LNCaP, A549, MCF7, HL60, Hela and A375; conditions: read-out: Cell killing activity, IC50 values range over the panel; range over panel of human cancer cell lines
[15] = Body weight of mice after drug treatment; conditions: 1 mg/kg and 2 mg/kg

With `COc1cc2cc(c1Cl)N(C)C(=O)C[C@H](OC(=O)[C@H](C)N(C)C(C)=O)[C@]1(C)O[C@H]1[C@H](C)[C@@H]1C[C@@](O)(NC(=O)O1)[C@H](OC)/C=C/C=C(\C)C2` [Maytansine, reference compound] the IC50 ([1]; Homo sapiens, 72 hours, read-out: Cytotoxic activity IC50, KB) was 0.16 nM, the “Cytotoxic activity IC90, KB” value [1] was ~5 nM and the IC50 [2] was 0.56 nM. The IC50 ([3]; 72 hours, read-out: Cytotoxic activity IC50, A549) was 3.18 nM, the IC90 ([3]; read-out: Cytotoxic activity IC90, A549) was > 40 nM and the IC50 ([4]; 72 hours, read-out: Cytotoxic activity IC50, MCF7) was 0.69 nM. For the same molecule, the IC90 ([4]; read-out: Cytotoxic activity IC90, MCF7) was > 20 nM and the “Mortality of tumor-bearing mice” value ([5]; 0.1 mg/kg, after the first two treatments) was “All mice died”.

With `CC(C)C[C@H]1NC(=O)[C@@H](C)N(C)C(=O)[C@H](C)N(C)C(=O)[C@H](C2[C@@H](C)[C@@H]2C)NC(=O)[C@H](CC(C)C)N(C)C(=O)[C@H](C)N(C)C(=O)[C@@H](C2[C@@H](C)[C@@H]2C)NC1=O` (stereo partly drawn) [MV-A] (cyclo([NMeA][NMeL][X1][NMeA][dNMeA][dL][X2])) the “Inhibition (%)” value ([6]; A549-IP, 0.05 mg/kg) was 18.2%, the “Inhibition (%)” value ([6]; A549-IP, 0.1 mg/kg) was 56.6% and the “Inhibition (%)” value ([6]; A549-SC, 0.05 mg/kg) was 0%. For the same molecule, the “Inhibition (%)” value ([6]; A549-SC, 0.1 mg/kg) was 36.4%, the “Inhibition (%)” value ([7]; HCT116-IP, 0.1 mg/kg) was 33.1% and the “Inhibition (%)” value ([7]; HCT116-IP, 0.2 mg/kg) was 53.3%. For the same molecule, the “Inhibition (%)” value ([7]; HCT116-IP, 0.8 mg/kg) was 65.0%, the “Inhibition (%)” value ([7]; HCT116-SC, 0.1 mg/kg) was 0% and the “Inhibition (%)” value ([7]; HCT116-SC, 0.2 mg/kg) was 15.1%. For the same molecule, the “Inhibition (%)” value ([7]; HCT116-SC, 0.8 mg/kg) was 12.7%, the “Inhibition (%)” value ([8]; MCF7-IP, 0.05 mg/kg) was 65.9% and the “Inhibition (%)” value ([8]; MCF7-IP, 0.1 mg/kg) was 76.8%. The “Inhibition (%)” value ([8]; MCF7-IP, 0.2 mg/kg) was 68.3%, the “Inhibition (%)” value ([8]; MCF7-IP, 0.4 mg/kg) was 66.7% and the “Inhibition (%)” value ([8]; MCF7-SC, 0.05 mg/kg) was 0%. For the same molecule, the “Inhibition (%)” value ([8]; MCF7-SC, 0.1 mg/kg) was 0%, the “Inhibition (%)” value ([8]; MCF7-SC, 0.2 mg/kg) was 13.9% and the “Inhibition (%)” value ([8]; MCF7-SC, 0.4 mg/kg) was 56.0%. The “Inhibition (%)” value ([9]; A375-IP, 0.2 mg/kg) was 35.3%, the “Inhibition (%)” value ([9]; A375-IP, 0.4 mg/kg) was 67.4% and the “Inhibition (%)” value ([9]; A375-SC, 0.2 mg/kg) was 17.2%. The “Inhibition (%)” value ([9]; A375-SC, 0.4 mg/kg) was 27.8%, the “Inhibition (%)” value ([10]; Hela-IP, 0.2 mg/kg) was 45.8% and the “Inhibition (%)” value ([10]; Hela-IP, 0.4 mg/kg) was 82.7%. For the same molecule, the “Inhibition (%)” value ([10]; Hela-SC, 0.2 mg/kg) was 23.2%, the “Inhibition (%)” value ([10]; Hela-SC, 0.4 mg/kg) was 52.8% and the “Inhibition of HCT116 tumor growth (excised tumor weights)” value ([5]; 0.5 mg/kg (low dose)) was 31.1%. The “Inhibition of HCT116 tumor growth (excised tumor weights)” value ([5]; 1.0 mg/kg (high dose)) was 52.8%, the “Weight loss of mice after the first two treatments” value ([5]; HCT116 xenograft, 0.5 and 1.0 mg/kg groups) was 1 to 2 g and the “Inhibition of MCF7 tumor growth (excised tumor weights)” value ([11]; 1.0 mg/kg (low dose)) was 48.1%. The “Inhibition of MCF7 tumor growth (excised tumor weights)” value ([11]; 2.0 mg/kg (high dose)) was 72.6%, the “Weight loss of mice after the first two treatments” value ([11]; MCF7 xenograft, 1.0 and 2.0 mg/kg groups) was 1 to 2 g and the EC50 [12] was 0.3 nM. The IC50 [13] was 12.9 nM, the IC50 [14] was 0.05 to 1.5 nM and the “Mortality during the treatments” value [15] was “No mice die”. The “Toxicity observed from dissection of the mice” value [15] was “No sign of toxicity” and the “Drop of average weight of mice after the first two treatments” value ([15]; intravenous, intraperitoneal or oral) was 1 to 2 g.

— US9963485B2, “Cycloheptapeptide agents for treatment of cancer and obesity diseases” (Hong Kong Baptist University, priority 2012, dated 2018)
